Results from paper PMC6440977, “Nucleoside analogue activators of cyclic AMP-independent protein kinase A of Trypanosoma” (Nature Communications, 2019).
Where “and” joins values, the source holds several entries; their conditions need not be identical. Equal values may be shown once. Read-outs that look alike come from different tables or passages of the source.

Columns and labels:
[1] = biological target: T1, mammalian PKARIα2–2PKACα holoenzyme (Homo sapiens, UniProt P10644); experiment: In vitro kinase assay with purified mammalian holoenzyme; format: biochemical, human PKARIα, mouse PKACα; settings: for In vitro kinase assay: technical replicates
T1 construct: The full length ORFs (amplified with primers introducing the respective); made in house; host or cells: E. coli strain APE304 (adenylate cyclase-deficient)

[2] = biological target: T. brucei PKAR-PKAC1 holoenzyme (Trypanosoma brucei, UniProt Q9GU80); experiment: biochemical; format: biochemical; settings: for In vitro kinase assay: technical replicates
[3] = tested on: T. brucei BSF cells (WT); experiment: Alamar blue cell viability assay, wild type; settings: for EC50: wild type cells;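 on all read-outs here: trypanosomes seeded at 5×10^3 per ml and grown 72 h with compound, then resazurin 0.5 mM added for 4 h as the viability read-out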
[4] = tested on: metacaspase 4 (MCA4); format: cell-based, Trypanosoma brucei; settings: for MCA4 counts / MCA4 normalized / MCA4 fold change: 4 µM; for MCA4 normalized: normalized to PFR-A/C; for MCA4 fold change: untreated WT set to 1
[5] = biological target: T2, T. brucei PKA (Trypanosoma brucei brucei, UniProt Q9GU80); experiment: In vivo PKA reporter assay (VASP Ser-157 phosphorylation, western blot); format: cell-based;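 further: T. brucei cells expressing human VASP as heterologous PKA substrate, compound exposure at 37 °C, western blot of phospho (50 kDa) versus unphosphorylated (46 kDa) VASP band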
[6] = biological target: T. brucei PKAR(199–499) (Trypanosoma brucei, UniProt Q9GU80); experiment: biochemical; format: binding; parameters: Thermodynamics (ITC) -TΔS / Thermodynamics (ITC) ΔG / Thermodynamics (ITC) ΔH: unit: kcal/mol
[7] = tested on: T. brucei ∆pkar/∆pkar (pkar KO) cells; experiment: microbe, parasite or virus in culture; format: cell-based, Trypanosoma brucei; settings: for EC50: pkar KO cells
[8] = tested on: RXXS*/T* site phosphorylation; experiment: Western blot of global RXXS*/T* site phosphorylation (phospho-PKA substrate antibody); format: cell-based, Trypanosoma brucei; settings: wild type, 2 µM, 10 min
[9] = tested on: PKAC1/2; format: cell-based, Trypanosoma brucei; settings: 4 µM; for PKAC1/2 normalized: normalized to PFR-A/C; for PKAC1/2 fold change: untreated WT set to 1;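 on all read-outs here: trypanosoma brucei cells, PKAC1/2 signal from western blots read on an infrared fluorescence scanning system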
[10] = biological target: T3, human PKARIα (Homo sapiens, UniProt P10644); experiment: Binding by isothermal titration calorimetry (ITC)
T3 construct: The full length ORFs (amplified with primers introducing the respective); 6xHis followed by TEV site (N); made in house; host or cells: E. coli Rosetta D3

[11] = biological target: T2, T. brucei PKA; settings: ref Shalaby et al. (reference 23 in manuscript); cited from earlier work
[12] = tested on: T. brucei PKA holoenzyme (Ty1-PKAC1); format: biochemical, Trypanosoma brucei; settings: for in vitro kinase assay [CPM], average: average of 3; for in vitro kinase assay [CPM]: independent replicates
[13] = tested on: T. brucei PKA holoenzyme (PKAR-Ty1); format: biochemical, Trypanosoma brucei; settings: for in vitro kinase assay [CPM], average: average of 3; for in vitro kinase assay [CPM]: independent replicates
[14] = tested on: T. brucei PKA holoenzyme (HA-PKAC2); format: biochemical, Trypanosoma brucei; settings: for in vitro kinase assay [CPM], average: average of 3; for in vitro kinase assay [CPM]: independent replicates

Chain of T. brucei PKAR(199–499) (Q9GU80 entry or part of it): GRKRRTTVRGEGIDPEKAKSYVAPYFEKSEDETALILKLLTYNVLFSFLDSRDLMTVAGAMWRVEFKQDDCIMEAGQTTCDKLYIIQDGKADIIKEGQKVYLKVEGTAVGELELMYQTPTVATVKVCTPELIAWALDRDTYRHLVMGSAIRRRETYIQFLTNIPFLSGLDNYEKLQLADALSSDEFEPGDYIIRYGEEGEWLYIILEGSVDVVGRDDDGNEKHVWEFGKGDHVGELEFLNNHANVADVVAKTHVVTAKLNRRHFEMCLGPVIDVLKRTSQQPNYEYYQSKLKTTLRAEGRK
Chain of T. brucei PKAR-PKAC1 holoenzyme (Q38DR5 entry or part of it): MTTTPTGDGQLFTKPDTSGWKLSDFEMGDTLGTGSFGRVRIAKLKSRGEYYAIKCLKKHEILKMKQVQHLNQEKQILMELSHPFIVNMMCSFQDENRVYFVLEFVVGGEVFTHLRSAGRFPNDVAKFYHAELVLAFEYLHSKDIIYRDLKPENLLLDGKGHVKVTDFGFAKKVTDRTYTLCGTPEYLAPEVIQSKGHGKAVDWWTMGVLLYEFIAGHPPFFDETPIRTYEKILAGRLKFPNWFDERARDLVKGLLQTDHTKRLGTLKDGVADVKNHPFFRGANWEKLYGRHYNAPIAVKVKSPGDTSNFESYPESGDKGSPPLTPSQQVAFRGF
Chain of T. brucei PKAR-PKAC1 holoenzyme (Q9GU80 entry or part of it): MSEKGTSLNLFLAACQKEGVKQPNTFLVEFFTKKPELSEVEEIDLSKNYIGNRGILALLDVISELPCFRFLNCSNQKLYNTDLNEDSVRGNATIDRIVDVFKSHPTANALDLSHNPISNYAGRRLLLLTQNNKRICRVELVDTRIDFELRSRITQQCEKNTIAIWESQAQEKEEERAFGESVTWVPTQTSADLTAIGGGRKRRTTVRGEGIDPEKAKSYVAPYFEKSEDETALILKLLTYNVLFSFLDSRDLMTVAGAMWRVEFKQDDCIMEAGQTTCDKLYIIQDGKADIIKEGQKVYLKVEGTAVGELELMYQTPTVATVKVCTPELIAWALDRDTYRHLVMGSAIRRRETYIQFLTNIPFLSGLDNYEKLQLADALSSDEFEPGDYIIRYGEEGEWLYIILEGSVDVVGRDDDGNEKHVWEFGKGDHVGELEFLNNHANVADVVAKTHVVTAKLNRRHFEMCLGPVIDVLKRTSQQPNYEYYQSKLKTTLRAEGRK
T1 sequence (P10644 whole entry): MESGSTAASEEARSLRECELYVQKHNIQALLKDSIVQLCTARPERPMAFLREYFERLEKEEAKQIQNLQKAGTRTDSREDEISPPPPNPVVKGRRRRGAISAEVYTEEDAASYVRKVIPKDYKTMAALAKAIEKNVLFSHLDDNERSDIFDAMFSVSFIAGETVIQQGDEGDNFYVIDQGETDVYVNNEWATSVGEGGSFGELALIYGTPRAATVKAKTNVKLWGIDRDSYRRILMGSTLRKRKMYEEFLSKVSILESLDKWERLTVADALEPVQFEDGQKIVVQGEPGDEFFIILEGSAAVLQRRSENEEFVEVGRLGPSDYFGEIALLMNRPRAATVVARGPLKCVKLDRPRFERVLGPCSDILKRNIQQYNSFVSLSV
T2 sequence (Q38DS1 entry or part of it): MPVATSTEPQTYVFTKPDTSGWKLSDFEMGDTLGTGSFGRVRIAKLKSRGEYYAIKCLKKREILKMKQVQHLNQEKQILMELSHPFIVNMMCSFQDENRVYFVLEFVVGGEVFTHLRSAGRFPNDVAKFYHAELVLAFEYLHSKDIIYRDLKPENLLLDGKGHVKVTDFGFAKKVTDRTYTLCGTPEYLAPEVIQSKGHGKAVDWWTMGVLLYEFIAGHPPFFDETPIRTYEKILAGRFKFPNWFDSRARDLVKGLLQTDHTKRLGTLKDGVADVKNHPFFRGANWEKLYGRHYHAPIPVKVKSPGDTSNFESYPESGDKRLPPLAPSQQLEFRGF
T2 sequence (Q38DR5 entry or part of it, further chain): as the sequence (Q38DR5 entry or part of it) above
T3 sequence (P10644 whole entry): as the sequence (P10644 whole entry) above

N#Cc1cn([C@@H]2O[C@H](CO)[C@@H](O)[C@H]2O)c2ncnc(N)c12 [Toyo, 7-Cyano-7-deazaadenosine]
In vitro kinase assay ([1]; 0.05 µM): 0.0536 U/ml and 0.052 U/ml | In vitro kinase assay ([1]; 0.5 µM): 0.0466 U/ml and 0.0501 U/ml | In vitro kinase assay ([1]; 5 µM): 0.0571 U/ml and 0.0671 U/ml | In vitro kinase assay ([1]; 50 µM): 0.067 U/ml and 0.0605 U/ml | activation of mammalian PKARIα2–2PKACα holoenzyme, in words ([1]; up to 270-fold above EC50 for T. brucei PKA holoenzyme): did not activate | In vitro kinase assay ([2]; 0.001 µM): 0.11 U/ml and 0.14 U/ml | In vitro kinase assay ([2]; 0.01 µM): 0.16 U/ml | In vitro kinase assay ([2]; 0.02 µM): 0.18 U/ml and 0.15 U/ml | In vitro kinase assay ([2]; 0.04 µM): 0.31 U/ml and 0.25 U/ml | In vitro kinase assay ([2]; 0.08 µM): 0.3 U/ml and 0.33 U/ml | In vitro kinase assay ([2]; 0.16 µM): 0.45 U/ml and 0.4 U/ml | In vitro kinase assay ([2]; 0.31 µM): 0.58 U/ml and 0.64 U/ml | In vitro kinase assay ([2]; 0.63 µM): 0.61 U/ml and 0.73 U/ml | In vitro kinase assay ([2]; 1.25 µM): 0.71 U/ml and 0.74 U/ml | In vitro kinase assay ([2]; 2.5 µM): 0.78 U/ml and 0.82 U/ml | In vitro kinase assay ([2]; 5 µM): 0.82 U/ml and 0.75 U/ml and 4.49 U/ml and 4.39 U/ml | EC50 ([2]; kemptide phosphorylation, mean ± SD, read-out: EC50 in vitro PKA assay): 234 ± 92 nM | IC50 ([3]; Trypanosoma brucei, 72 h, read-out: IC50 growth WT): 739 ± 59 nM | EC50 ([3]; Trypanosoma brucei, read-out: EC50, Alamar blue cell viability assay, WT, individual replicate results): 866 nM | EC50 ([3]; read-out: EC50, Alamar blue cell viability assay, WT, individual replicate results): 746 nM and 898 nM and 614 nM and 641 nM and 510 nM and 901 nM | MCA4 counts ([4]; WT, 12 h): 10.96 | MCA4 normalized ([4]; WT, 12 h): 7.611 | MCA4 fold change ([4]; WT, 12 h): 0.5155 | MCA4 counts ([4]; WT, 18 h): 19.07 | MCA4 normalized ([4]; WT, 18 h): 24.1392 | MCA4 fold change ([4]; WT, 18 h): 1.635 | MCA4 counts ([4]; WT, 24 h): 23.58 | MCA4 normalized ([4]; WT, 24 h): 24.8211 | MCA4 fold change ([4]; WT, 24 h): 1.681 | MCA4 abundance, in words ([4]; later time points, PKA-independent): elevated | MCA4 counts ([4]; pkar KO, 12 h): 13.45 | MCA4 normalized ([4]; pkar KO, 12 h): 0.4781 | MCA4 fold change ([4]; pkar KO, 12 h): 0.9855 | MCA4 counts ([4]; pkar KO, 18 h): 12.35 | MCA4 normalized ([4]; pkar KO, 18 h): 0.669 | MCA4 fold change ([4]; pkar KO, 18 h): 1.379 | MCA4 counts ([4]; pkar KO, 24 h): 14.17 | MCA4 normalized ([4]; pkar KO, 24 h): 0.8557 | MCA4 fold change ([4]; pkar KO, 24 h): 1.764 | MCA4 abundance, in words ([4]; wild type, 12 h post induction): decreased | EC50 ([5]; VASP reporter, 15 min treatment, mean ± SD, read-out: EC50 in vivo PKA assay): 88 nM and 87.6 nM | induction of VASP phosphorylation in pkar knock out, in words ([5]; homozygous deletion of PKAR): did not induce phosphorylation of VASP | Kd ([6]; 298 K, mean ± SD, n=3, read-out: KD in vitro binding to PKAR (ITC)): 57 ± 25 nM | −TΔS (entropic component of binding) ([6]; ITC, mean): -0.9 kcal/mol | Thermodynamics (ITC) -TΔS ([6]; independent replicates): -2.01 and -0.373 and -0.411 | Thermodynamics (ITC) ΔG ([6]; independent replicates): -10.3 and -9.67 and -9.84 | Thermodynamics (ITC) ΔH ([6]; independent replicates): -8.26 and -9.3 and -9.43 | Molar ratio of binding (ITC) ([6]; ligand to protein, mean ± SD, n=3): 2.1 ± 0.1 | IC50 ([7]; Trypanosoma brucei, 72 h, read-out: IC50 growth pkar KO): 690 ± 58 nM | EC50 ([7]; Trypanosoma brucei, read-out: EC50, Alamar blue cell viability assay, KO, individual replicate results): 941 nM | EC50 ([7]; read-out: EC50, Alamar blue cell viability assay, KO, individual replicate results): 768 nM and 560 nM and 610 nM and 492 nM and 666 nM and 791 nM | increase in global RXXS*/T* site phosphorylation [8]: 3–4 fold | PKAC1/2 counts ([9]; WT, 12 h): 34.11 | PKAC1/2 normalized ([9]; WT, 12 h): 23.6875 | PKAC1/2 fold change ([9]; WT, 12 h): 0.1712 | PKAC1/2 counts ([9]; WT, 18 h): 35.81 | PKAC1/2 normalized ([9]; WT, 18 h): 45.3291 | PKAC1/2 fold change ([9]; WT, 18 h): 0.3275 | PKAC1/2 counts ([9]; WT, 24 h): 31.4 | PKAC1/2 normalized ([9]; WT, 24 h): 33.0526 | PKAC1/2 fold change ([9]; WT, 24 h): 0.2388 | PKAC1/2 counts ([9]; pkar KO, 12 h): 38.16 | PKAC1/2 normalized ([9]; pkar KO, 12 h): 1.357 | PKAC1/2 fold change ([9]; pkar KO, 12 h): 0.08353 | PKAC1/2 counts ([9]; pkar KO, 18 h): 35.91 | PKAC1/2 normalized ([9]; pkar KO, 18 h): 1.945 | PKAC1/2 fold change ([9]; pkar KO, 18 h): 0.1198 | PKAC1/2 counts ([9]; pkar KO, 24 h): 34.95 | PKAC1/2 normalized ([9]; pkar KO, 24 h): 2.111 | PKAC1/2 fold change ([9]; pkar KO, 24 h): 0.13 | binding to purified human PKARIα, in words [10]: did not bind

Nc1nc2c(ncn2[C@@H]2O[C@@H]3COP(=O)(O)O[C@H]3[C@H]2O)c(=O)[nH]1 [cGMP]
cGMP concentration activating T. brucei PKA [11]: ≥ 20 µM | concentration at which the holoenzyme is activated [12]: ≥ 100 µM | in vitro kinase assay [CPM], PKI ([12]; 0.1 mM + 5 µM PKI(5-24), Supp Fig 3b): 1147.4 CPM | in vitro kinase assay [CPM], average ([12]; 0.1 mM, Supp Fig 3b): 13459.0 CPM | in vitro kinase assay [CPM] ([12]; 0.1 mM, Supp Fig 3b): 15124.3 CPM and 11079.5 CPM and 14173.3 CPM | in vitro kinase assay [CPM], PKI ([12]; 1 mM + 5 µM PKI(5-24), Supp Fig 3b): 3732 CPM | in vitro kinase assay [CPM], PKI ([12]; 1 mM + 5 µM PKI(5-24), Supp Fig 3c): 1928.6 CPM | in vitro kinase assay [CPM], average ([12]; 1 mM, Supp Fig 3b): 48614.9 CPM | in vitro kinase assay [CPM] ([12]; 1 mM, Supp Fig 3b): 51091.7 CPM and 52665 CPM and 42088 CPM | in vitro kinase assay [CPM], average ([12]; 1 mM, Supp Fig 3c): 18465.6 CPM | in vitro kinase assay [CPM] ([12]; 1 mM, Supp Fig 3c): 15510 CPM and 18398 CPM and 21488.7 CPM | concentration at which the holoenzyme is activated [13]: ≥ 100 µM | in vitro kinase assay [CPM], PKI ([13]; 0.1 mM + 5 µM PKI(5-24)): 1137.33 CPM | in vitro kinase assay [CPM], average ([13]; 0.1 mM): 8446.6 CPM | in vitro kinase assay [CPM] ([13]; 0.1 mM): 9140 CPM and 8772.75 CPM and 7427.05 CPM | in vitro kinase assay [CPM], PKI ([13]; 1 mM + 5 µM PKI(5-24)): 3682.78 CPM | in vitro kinase assay [CPM], average ([13]; 1 mM): 22856.7 CPM | in vitro kinase assay [CPM] ([13]; 1 mM): 17347.2 CPM and 27346.7 CPM and 23876.3 CPM | concentration at which the holoenzyme is activated [14]: ≥ 100 µM | in vitro kinase assay [CPM], PKI ([14]; 0.1 mM + 5 µM PKI(5-24)): 375.47 CPM | in vitro kinase assay [CPM], average ([14]; 0.1 mM): 2249 CPM | in vitro kinase assay [CPM] ([14]; 0.1 mM): 2477.88 CPM and 2206.3 CPM and 2062.83 CPM | in vitro kinase assay [CPM], PKI ([14]; 1 mM + 5 µM PKI(5-24)): 760.33 CPM | in vitro kinase assay [CPM], average ([14]; 1 mM): 8405.46 CPM | in vitro kinase assay [CPM] ([14]; 1 mM): 9366.36 CPM and 9774.29 CPM and 6075.73 CPM
